No end group written: not given here.
What was measured:
[1] = system: neonatal rat CMs (heart cells); test: Heart cell attachment on peptide-modified Az-chitosan coated coverslips (brightfield cell counts); assay type: cell-based, rat (Sprague-Dawley); conditions: coated glass coverslips, 1, 3 and 5 days of incubation, FIG. 1
Description: Neonatal (1 to 2 day-old) Sprague-Dawley rats were euthanized according to the procedure approved by the University of Toronto Committee on Animal Care. […] The supernatant from 5 collagenase digests of the tissues was collected and centrifuged at 750 rpm (94 g) for 4 min, resuspended in culture medium and pre-plated into T75 flasks (Falcon) for 1 hour to separate the non-adherent cells (enriched CMs) from the adherent cells (non-myocytes). The enriched CMs were used in the studies. The CM culture medium consisted of Dulbecco's Modified Eagle Medium (DMEM) with 4.5 g/L glucose, 4 mM L-glutamine, 10% certified fetal bovine serum (FBS), 100 U/mL penicillin, 100 μg/mL streptomycin, and 10 mM 4-2-hydroxyethyl-1-piperazineethanesulfonic acid buffer (HEPES, Gibco/Invitrogen).
The surfaces used for microscopy analysis were created on circular 12 mm diameter glass coverslips (VWR). These were plasma treated (WS-400BZ-6NPP/Lite, Laurell Technologies) for 30 s. […]
The day before cells were ready to be seeded, the surfaces in the 12-well plates were sterilized by germicidal UV illumination overnight. […]
Brightfield images were taken with 10× magnification of surfaces with cells (N=3) to visualize the morphology and cell attachment (IX81, Olympus). […] The number of cells was then counted using the cell counting plug-in on ImageJ (NIH version 1.36b).

[2] = system: Rat neonatal cardiomyocytes; test: Hydrogen peroxide treatment, Trypan blue viability (monolayer); assay type: cell-based; conditions: 500 μM peptide 1.5 hr, 100 μM H2O2 10 min, FIG. 5A
Description: Rat neonatal cardiomyocytes were incubated for 1.5 hr with 500 μM QHREDGS, scrambled (scram) QHREDGS peptide (DGQESHR), or PBS control (PBS); 200 nM ang 1 or its matched buffer control [0.1% bovine serum albumin (BSA) in PBS] in the culture medium. The culture medium consisted of Dulbecco's Modified Eagle's Medium (DMEM) with 0.5% BSA and cytosine-β-D-arabinofuranoside (anti-proliferative). Reactive oxygen species were increased by addition of 100 μM H2O2 for 10 min (37° C., 5% CO2) (N=6/group). Cell viability was measured using a Trypan blue stain. Trypan blue dye is impermeable to viable cells, but enters dead/damaged cells with impaired membrane integrity, staining cells blue.

[3] = system: Rat neonatal cardiomyocytes; test: ATP assay (CellTiter-Glo) in serum-starved cardiomyocytes; assay type: cell-based; conditions: 500 μM peptide, 1 d
Description: Rat neonatal cardiomyocytes were incubated with PBS (control), 500 μM QHREDGS, scrambled QHREDGS peptide, GRGDSP peptide or 400 nM ang 1 or ang2 in DMEM/0.5% BSA/cytosine-β-D-arabinofuranoside (37° C., 5% CO2, 1 d). ATP levels were quantified using the CellTiter-Glo Luminescent Assay (Promega) as per manufacturer's instructions (N=6/group). Luminescence was measured using a Wallac 1420 microplate reader.

[4] = system: human iPS cells 0901B; test: Pluripotency markers Oct4 and SSEA4 by FACS; assay type: cell-based; conditions: 50 μM, five passages, FIG. 15
Description: (§1) Analytical flow cytometry was performed on a FACSCalibur flow cytometer (BD Biosciences) as described in Chiang et al. Acta Biomater. 6, 1904-1916 (2010), with an additional permeabilization step with 0.25% Triton-X (Sigma) for 10 min at 4° C. Oct4 (Millipore), SSEA-4 (Developmental Studies Hybridoma Bank) and Ki67 (Millipore) and all secondary antibodies (Jackson ImmunoResearch) were used at 1:100.

[5] = system: human iPS cells BJ1D; test: Pluripotency markers Oct4 and SSEA4 by FACS; assay type: cell-based; conditions: 50 μM, five passages, FIG. 14
Description: as §1

[6] = system: human iPS cells; test: EB differentiation of treated iPS cells; assay type: cell-based; conditions: after 5 passages of treatment, EB protocol
Description: Following 5 passages in continuous treatment, iPS cells were collected and differentiated into embryoid bodies (EB) containing cells of all three germ layers as described Itskovitz-Eldor, J. et al. Mol. Med. 6, 88-95 (2000). For further differentiation and analysis, EBs were plated onto 0.2% gelatin coated plates for another 10 days for attachment and fixed in 4% para-formaldehyde (Sigma) for immunohistochemistry.

[7] = system: Human ESC-derived cardiac cells (Hes2); test: H2O2 exposure, CFDA-Live/PI-Dead of human ESC-derived cardiac cells; assay type: cell-based; conditions: 50 μM, 100 μM H2O2 10 min, FIG. 19
Description: Human ESC-derived cardiac cell culture, were derived from Day 20 EBs, consisting of greater than 50% cardiomyocytes obtained by directed differentiation of human ES (Hes2) cells as described by Yang et al. (Nature 453, 524-528 (2008)). EBs were dissociated using Collagenase I (Invitrogen) for 2 hrs and 0.05% Trypsin-EDTA (Invitrogen) for 5 min and plated at 40000 cells/cm^2 onto 0.2% gelatin-coated plates in Stempro 34 medium supplemented with VEGF (10 ng/ml) and DKK1 (150 ng/ml). Cells were cultured in the presence of 50 μM QHREDGS, 50 μM DGQESHR (Biomatik) or PBS until they formed a beating monolayer, around 10 days. Peptides were replenished during media changes every 3 days. 100 μM H2O2 (Sigma, dissolved in PBS) was added to culture media for 10 min, washed, and analyzed immediately for CFDA-Live/PI-Dead. Live cells were counted using the cell counter plug in for ImageJ. 0.5 μM or 2.5 μM taxol (Sigma, dissolved in DMSO) was added to culture media for 24 hrs, and the extent of apoptosis was analyzed immediately using the Apo-ONE Homogeneous Caspase Assay (Promega), or TUNEL assay (Roche) as described above. A PBS control was used for H2O2 and DMSO control was used for taxol.

| Substance | cell adhesion / cell attachment to coated surface [1] | cardiomyocyte viability after exposure to H2O2 [2] | cardiac myocyte ATP levels [3] | expression of Oct4 and SSEA4 (FACS) [4] | expression of Oct4 and SSEA4 (FACS) [5] | differentiation into neural, mesodermal and endodermal cells [6] | viability of cardiac cells (% Live-CFDA/Dead-PI) [7] |
| --- | --- | --- | --- | --- | --- | --- | --- |
| Az-chitosan-QHREDGS: QHREDGS peptide covalently conjugated to Az-chitosan by EDC chemistry (also: covalently conjugated to Az-chitosan by EDC chemistry, site not given here) | significantly greater cell adhesion | – | – | – | – | – | – |
| QHREDGS (angiopoietin 1 peptide) | – | maintain cardiomyocyte viability | substantially increased | comparable to both PBS and DGQESHR scrambled peptide controls | comparable to both PBS and DGQESHR scrambled peptide controls | retained the competence to differentiate | enhanced viability |
